The results in this text go back to a melting point compilation (Tetko et al.; mined from patent text by program, amines drawn as free bases though some values may be those of a salt).

Molecules are shown by their SMILES.

As a reminder, the melting point is the temperature of the solid-liquid transition.

Compound `CC(C)(C)C(=O)OC1CCC2C3(O)C=CC4=CC(=O)CCC4(CO)C3CCC12C` (stereo not drawn) showed a melting point of 201 to 203 °C.

For `O=C(O)C(O)c1ccc2ccccc2c1` (racemic), the melting point is 164 to 166 °C.

`Nc1ncc([N+](=O)[O-])cc1[N+](=O)[O-]` yielded a melting point of 190 to 191 °C.

For the compound `CCOC(=O)c1cc(=O)c2cc(C(=O)OCC)c(C(=O)OCC)nc2o1`, the melting point was found to be 106 °C.

For the compound `CCCC1=C(C(=O)OCC)C(c2cccc([N+](=O)[O-])c2)C(C(=O)OCC)=C(CCC)N1COCC`, the melting point lay within 109 to 110 °C.

On to `CC(C)c1cc(C(C)C)c(CC#N)c(C(C)C)c1C#N`, for which the melting point lay within 98 to 101 °C.

On to `CC(C)(C)c1ccccc1N1CCN(C(=O)C(=O)Nc2ccccn2)CC1`, for which the melting point lay within 168 to 172 °C.

In the case of `CS(=O)(=O)c1ccc2nc(NC(=N)N)nc(-c3ccccc3)c2c1`, the melting point lay within 180 to 185 °C.

`CC(C)(C)C(=O)COc1ccc(-c2ccc(Cl)cc2)cc1` registered a melting point of 90 °C.

The compound `COC(=O)C(C)(C)c1ccc(C(=O)Nc2cn3cc(-c4ccsc4)ccc3n2)cc1` came in with a melting point of 200 to 201 °C.

The compound `COCC(=O)Nc1cc2c(cc1Br)CCC2` showed a melting point of 84 to 86 °C.

Regarding `CNc1ccc(CN2C(=O)C(C)(c3ccccc3Cl)c3cc(Cl)ccc32)c(OC)c1` (stereo not drawn), the melting point was determined as 226 °C.

Take `COC(=O)C(C(C)C)N(C)S(=O)(=O)c1ccc(-c2ccc([N+](=O)[O-])cc2)cc1` (stereo not drawn): the melting point fell in the range of 117 to 118 °C.

`O=c1ccc(Oc2ccccc2)n[nH]1` returned a melting point of 148 °C.

Regarding `CCOC(=O)c1nc2cc(NC(=O)OC(C)(C)C)ccn2n1`, the melting point was 220 to 222 °C.

For `Cc1cccc(N)c1C(=O)Nc1nnn[nH]1`, the melting point was found to be 248 °C.

On to `Cc1ccc(S(=O)(=O)Nc2cccc(-c3nnc(-c4ccc(C(=O)O)cc4)o3)c2)cc1`, for which the melting point is greater than 275 °C.

`C=CCN1CCN(C(=O)OC2C3=C(OCCS3)C(=O)N2c2ccc3ccc(Cl)nc3n2)CC1` (stereo not drawn) registered a melting point of 254 °C.

For `CC(C)(O)c1cc2cc(OCC(=O)O)c(Cl)c(Cl)c2s1`, the melting point lay in the range of 194 to 196 °C.

Regarding `Oc1ccc(-c2csc(S)n2)cc1O`, the melting point is 236 °C.

Compound `CCC1Cc2cc(NC(C)=O)ccc2C1=O` (stereo not drawn) came in with a melting point of 154 to 155 °C.

In turn, `N#Cc1c(SC(F)(F)F)c(N)n(-c2c(Cl)cc(C(F)(F)F)cc2Cl)c1C#N` had a melting point of 175 to 177 °C.

The compound `CC(C)(C)C(=O)Nc1ccc(C=CC(=O)N2CCc3c([nH]c4ccccc34)C2c2ccc3c(c2)OCO3)cc1` (stereo not drawn) gave a melting point of 172 to 174 °C.

Take `NC(=S)c1ncn2c1[C@@H]1CCCN1C(=O)c1c(Cl)cccc1-2`: the melting point was 247 to 248 °C.

Compound `c1ccc(CO[C@@H]2CCC[C@H]2Nc2nc(N3CCN(c4ccccc4)CC3)nc3c2SCC3)cc1` registered a melting point of 100 to 105 °C.

Consider `CC1Cc2ccc(Cl)cc2CN(CCO)C1=O` (stereo not drawn), for which the melting point fell in the range of 139 to 140 °C.

Compound `CC(C)C(=N)Nc1ccccc1N1CCOCC1` registered a melting point of 138 °C.

The compound `Sc1nccn1Cc1ccccc1Cl` returned a melting point of 206 to 207 °C.

In turn, `O=C(Cc1ccccc1)c1cccc(OCc2ccccc2)c1` came in with a melting point of 58 to 60 °C.

Regarding `CC1CC2=CC(=O)CCC2C2C(Cl)CC3(C)C(=O)CCC3C12` (stereo not drawn), the melting point came out at 215 °C.

In turn, `CC(C)NC(=NC(=Nc1ccccc1)N1CCOCC1)C(C)C` gave a melting point of 132 to 135 °C.

As to `CC(C)C1c2ccc(F)cc2CCC1(O)CCO` (stereo not drawn), the melting point was 78 to 80 °C.

`COC(=O)c1cccc(CN2C(=O)C3(COc4cc5c(cc43)CCO5)c3ccccc32)c1` (stereo not drawn): the melting point fell in the range of 97 to 98 °C.

`Cc1ccccc1S(=O)(=O)NC(=O)c1ccc2c(ccn2Cc2cccc([N+](=O)[O-])c2)c1` returned a melting point of 208 to 210 °C.

The compound `CC(=O)Nc1ccc(OCCOC(=O)CCCNC(=O)c2cc(OCc3ccccc3)ccc2OCc2ccccc2)cc1` yielded a melting point of 141 to 143 °C.

As to `CCCCCCCCCCC=NNC(=N)N`, the melting point is 101 °C.

The compound `O=C(C=Cc1ccccc1)c1ccc(N2CCN(c3ccncc3)CC2)cc1` returned a melting point of 208 to 210 °C.

In turn, `Cc1cc(-c2nnn(C)n2)cc(C)c1OCCCn1ncnc1C` registered a melting point of 126 to 128 °C.

On to `Nc1c(-c2cc(Cl)ccc2O)c2cc([N+](=O)[O-])ccc2[nH]c1=O`, for which the melting point lay in the range of 344 to 347 °C.

In the case of `NC(=S)Nc1ccc(Br)cc1`, the melting point lay in the range of 188 to 189 °C.

As to `CN(C)C1CCCN(C(=O)c2ccc(NC(=O)Cc3ccccc3Cl)cc2)c2ccccc21` (stereo not drawn), the melting point was 187 to 189 °C.

`Cc1onc(C(=O)c2ccccc2)c1NC(=O)CCl` registered a melting point of 86 to 88 °C.

For `CCOCc1nc2c(N)nc3cc(-c4cccnc4)ccc3c2n1CCCCNC(=O)c1ccc(C(OCCN(C)C)c2ccccc2)cc1` (stereo not drawn), the melting point is 157 to 161 °C.

`CNC(=O)c1ccccc1NC(=O)COc1ccc(C(C)=O)cc1` displayed a melting point of 252 to 253 °C.

`CSc1nc(P(=O)(c2ccccc2)c2ccccc2)cc(P(=O)(c2ccccc2)c2ccccc2)n1` came in with a melting point of 221 to 222 °C.

Regarding `CC(=O)Oc1nc(-c2ccc(C(=O)O)cc2)sc1C`, the melting point lay within 227 to 230 °C.

The compound `CNCC1(O)c2ccccc2C=Cc2ccccc21` yielded a melting point of 112 to 114 °C.

The compound `NC(=O)Cc1cccc(C(=O)c2ccc(Cl)cc2)c1N` had a melting point of 212 to 215 °C.

The compound `CCOC(=O)c1c[nH]c2cc(F)c(OC)cc2c1=O` showed a melting point of 280 °C.

On to `CN1CCN(CC(=O)N2c3ccccc3C(=O)Nc3cccnc32)CC1`, for which the melting point lay in the range of 198 to 200 °C.

Compound `CCCCCCCCCCCCCCSc1ccc(C(=O)O)o1` had a melting point of 84 to 86 °C.

Consider `O=C(Nc1ccc(Cl)cc1)Oc1ccc2c(c1)N(Cc1ccccc1)CCC2`, for which the melting point was found to be 120 °C.

`COc1cc(Cc2n[nH]c3c2c(=O)n(-c2ccccc2)c2ncccc32)cc(OC)c1` showed a melting point of 258 to 259 °C.

For the compound `CN1CC=C(c2c[nH]c3ccc(NS(=O)(=O)N(C)C)cc23)CC1`, the melting point fell in the range of 207 to 208 °C.

`COc1cccc(NS(=O)(=O)c2ccc(NC3=C(Cl)C(=O)c4ccccc4C3=O)cc2)c1`: the melting point was in the range of 213 to 216 °C.

`CCN1CCC2(c3cccc(O)c3)CC(Cc3ccccc3)=CCC2C1` (stereo not drawn) registered a melting point of 160 to 162 °C.

Compound `COc1ccc(S(=O)(=O)N2CCc3cccc(-c4ccc(C(=O)O)cc4)c32)cc1` registered a melting point of 130 to 132 °C.

On to `CCOC(=O)c1cc(=O)c2c(OCC(O)COc3cccc(C(F)(F)F)c3)cccc2o1` (stereo not drawn), for which the melting point is 70 to 75 °C.

With `Cc1ccc(S(=O)(=O)NC(Cc2ccccc2)C(=O)NCCCCC(C(=O)O)N(CC(C)C)S(=O)(=O)c2ccc(C)cc2)cc1` (stereo not drawn), the melting point lay in the range of 301 to 306 °C.

The compound `Nc1c(F)c(N2C[C@@H](N)[C@@H](n3ccnn3)C2)c(F)c2c1c(=O)c(C(=O)O)cn2C1CC1` (relative stereo) registered a melting point of 275 to 277 °C.

As for `COC(=O)[C@@H]1C(=O)Nc2ccccc2C[C@H]1c1ccc2c(c1)OCO2` (racemic), the melting point was 211 to 214 °C.

As to `CC1=C(C(O)c2ccc3c(c2)CCN(C(N)=O)C3)C(C)(C)CCC1` (stereo not drawn), the melting point was in the range of 88.3 to 89 °C.

In turn, `COc1cc(CCC(=O)CC(=O)CCc2ccc(O)c(OC)c2)ccc1O` came in with a melting point of 92 to 94 °C.

Regarding `Cc1nc(-c2ccccc2)n[nH]c1=O`, the melting point is 75 to 76 °C.

Regarding `CCCS(=O)(=O)ON=C(Cl)c1ccc(C)cc1`, the melting point lay in the range of 57.5 to 60.5 °C.

With `O=c1cc2c3ccccc3sn2c2ccc(Cl)cc12`, the melting point is greater than 350 °C.

Regarding `CN1CCCC1=NC(=O)Nc1cccc(C#N)c1`, the melting point lay in the range of 145 to 147 °C.

`CC(C)(C)OC(=O)N(Cc1ccc(C(=O)O)cc1)c1ccc(C2CCCCC2)cc1`: the melting point lay within 192 to 194 °C.

With `CC(C(=O)O)c1ccc2nc(-c3ccccc3)oc2c1` (stereo not drawn), the melting point is 132 °C.

`Cc1c(S(=O)(=O)C(F)(F)F)cc(-c2ccc(S(C)(=O)=O)cc2)n1-c1ccc(F)cc1`: the melting point was in the range of 162 to 164 °C.

Compound `CC(=O)Oc1ccccc1NC(=O)CBr` showed a melting point of 79 to 82 °C.

`Cc1ccc(-c2nc(C(F)(F)F)nc(NN)c2-c2ccccc2)cc1` displayed a melting point of 188 to 191 °C.

On to `CC(=O)NC[C@H]1CN(c2ccc(N3CCC4(CC3)OCCS4)c(F)c2)C(=O)O1`, for which the melting point lay within 160 to 164 °C.

`COc1cccc2nc(-c3ccc(OCCNC(C)C)c(-c4ccc(S(C)(=O)=O)cc4)n3)[nH]c(=O)c12` returned a melting point of 222 to 223 °C.

In turn, `Oc1ccc2c(c1)CCCC(c1ccccc1)=C2c1ccc(OCCCl)cc1` registered a melting point of 238 to 240 °C.

`CCCC(=O)c1c(CC)nc2c(-c3ccc(Cl)cc3Cl)nccn12`: the melting point was 159 to 160 °C.

Compound `COc1cc2c(c(Cl)c1Cl)SC(C1CCCC1)C2O` (stereo not drawn) displayed a melting point of 129 to 132 °C.

`CS(=O)(=O)c1ccc(-c2[nH]c3ccc(Cl)cc3c2-c2ccccc2Cl)cc1` displayed a melting point of 300 to 302 °C.

`N#CSCCNc1c(Cl)cccc1[N+](=O)[O-]` had a melting point of 92 to 94 °C.

The compound `COc1ccc(CCNc2c(C)c(C)c3c(c2C)C(c2ccc(C(C)C)cc2)C(C)(C)O3)cc1` (stereo not drawn) returned a melting point of 63 to 65 °C.

In turn, `COc1ccc(C2(C#Cc3cc(C(=O)O)cs3)CCC(=O)CC2)cc1OC1CCCC1` yielded a melting point of 75 to 76 °C.

Regarding `CCOc1ccnc(F)c1NC(=O)OC(C)(C)C`, the melting point fell in the range of 130 to 131 °C.

`COc1ccc(C(=O)Cc2ccc3c(c2)OCO3)cc1OC` gave a melting point of 110 to 111 °C.

`CN(Cc1ccccc1O)c1nc(N(C)Cc2ccccc2O)nc(N(C)Cc2ccccc2O)n1` had a melting point of 199 to 200 °C.

`CC(C)CN(CC(C)C)C(=O)c1c(N)cccc1N`: the melting point was 76 to 77 °C.

`CCOC(=O)N(C)CC1CN(c2c(F)cc(C(=O)O)c(F)c2F)CCO1` (stereo not drawn): the melting point lay within 170 to 172 °C.

For `CC1CCc2c(C#N)ccc3c(=O)c(C(=O)O)cn1c23` (stereo not drawn), the melting point worked out at 300 °C.

In the case of `Nc1cc(N2CCN(C(=O)COc3cccc4ccccc34)CC2)nc(N)n1`, the melting point is 205 to 210 °C.
